Activity calls are given as the source filed them.
Tests used:
[1] = biological target: Sphingosine 1-phosphate receptor 3 (Homo sapiens, UniProt Q99500); experiment: Dose response cell-based high throughput screening assay for antagonists of the Sphingosine 1-Phosphate Receptor 3 (S1P3). [Related pubchem assays: 1429, 485 ]; format: functional
[2] = biological target: 5-hydroxytryptamine receptor 1E (Homo sapiens, UniProt P28566); experiment: Counterscreen assay for S1P3 antagonists: Dose response cell-based high throughput screening assay to identify antagonists of the 5-Hydroxytryptamine Receptor Subtype 1E (5HT1E). [Related pubchem assays: 1429, 485 ]; format: functional
BJ [3] = experiment: BJ-TERT fibroblast viability loss – cell-based, RAS-independent, luminescence, dose response (AID 1933); format: functional; settings: Homo sapiens
[4] = DRD fibroblast viability loss – cell-based, non-viral oncogenic, luminescence, dose response (AID 1934); format: functional; settings: Homo sapiens
[5] = viability of PTEN-deleted HCT116 cells – cell-based, HCT116 PTEN knockout, dose response (AID 1047); format: functional;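 also: HCT116 colon tumor cells with PTEN knocked out; cells exposed to compound for 60 hours before readout; potency for loss of cell viability measured by luminescence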
BJ [6] = experiment: growth inhibition of engineered Ras-driven BJ cells – cell-based, alamar blue fluorescence, cherrypicked samples, dose response (AID 2631); format: functional; settings: Homo sapiens;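 also: confirmatory dose-response assay in RAS-dependent BJ fibroblasts engineered with TERT, LT and ST, with cytotoxicity read by fluorescence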
[7] = biological target: T1, Apoptotic protease-activating factor 1 (Homo sapiens, UniProt O14727); format: functional
T1 sequence (O14727 whole entry): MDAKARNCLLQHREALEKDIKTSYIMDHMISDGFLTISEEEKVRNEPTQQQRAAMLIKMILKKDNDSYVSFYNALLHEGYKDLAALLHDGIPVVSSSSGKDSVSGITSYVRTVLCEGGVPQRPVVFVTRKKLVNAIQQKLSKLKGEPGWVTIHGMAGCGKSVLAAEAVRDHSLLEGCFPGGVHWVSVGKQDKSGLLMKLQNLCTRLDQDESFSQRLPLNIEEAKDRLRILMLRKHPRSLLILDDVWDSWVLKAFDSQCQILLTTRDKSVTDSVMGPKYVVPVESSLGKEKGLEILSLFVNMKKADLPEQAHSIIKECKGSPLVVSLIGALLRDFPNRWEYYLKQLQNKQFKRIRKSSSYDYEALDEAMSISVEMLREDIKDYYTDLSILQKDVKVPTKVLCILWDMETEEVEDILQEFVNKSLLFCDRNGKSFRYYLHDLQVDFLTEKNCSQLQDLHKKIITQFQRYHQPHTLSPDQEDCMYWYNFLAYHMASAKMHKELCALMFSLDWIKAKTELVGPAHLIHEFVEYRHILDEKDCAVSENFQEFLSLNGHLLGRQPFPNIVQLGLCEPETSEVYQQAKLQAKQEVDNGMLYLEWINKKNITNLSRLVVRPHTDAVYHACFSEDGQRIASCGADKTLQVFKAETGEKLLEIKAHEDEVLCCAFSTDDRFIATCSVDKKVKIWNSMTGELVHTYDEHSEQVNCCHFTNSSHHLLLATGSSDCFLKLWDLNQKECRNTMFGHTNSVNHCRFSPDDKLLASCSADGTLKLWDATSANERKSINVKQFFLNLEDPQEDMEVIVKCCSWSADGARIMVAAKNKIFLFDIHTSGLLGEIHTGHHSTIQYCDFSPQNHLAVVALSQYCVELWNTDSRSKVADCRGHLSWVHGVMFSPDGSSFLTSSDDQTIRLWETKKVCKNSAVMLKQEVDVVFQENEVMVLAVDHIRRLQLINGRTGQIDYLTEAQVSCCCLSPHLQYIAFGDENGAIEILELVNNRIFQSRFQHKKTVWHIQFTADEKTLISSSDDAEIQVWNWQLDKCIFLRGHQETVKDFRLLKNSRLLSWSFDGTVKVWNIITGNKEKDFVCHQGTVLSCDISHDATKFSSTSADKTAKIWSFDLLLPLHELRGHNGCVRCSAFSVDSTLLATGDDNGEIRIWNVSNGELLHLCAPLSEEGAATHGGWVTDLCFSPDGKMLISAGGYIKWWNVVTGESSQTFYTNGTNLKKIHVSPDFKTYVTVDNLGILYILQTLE

BJ [8] = experiment: cells; format: functional, cell-based; settings: Homo sapiens
[9] = viability of HCT116 lacking mutant beta-catenin – cell-based, human colon tumor, dose response (AID 1045); format: functional;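 also: HCT116 colon tumor cells with beta catenin knocked out; cells exposed to compound for 60 hours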
[10] = biological target: T2, Heat shock factor protein 1 (Mus musculus, UniProt P38532); experiment: decrease of HSF1-responsive luciferase luminescence – cell-based, NIH3T3, dose retest, confirmation (AID 2382); format: functional;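 also: NIH3T3 fibroblasts with HSF1-driven luciferase reporter stressed by proteasome inhibitor MG132; luminescence from HSF1-driven luciferase expression after 8 hours of MG132 stress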
T2 sequence (P38532 whole entry): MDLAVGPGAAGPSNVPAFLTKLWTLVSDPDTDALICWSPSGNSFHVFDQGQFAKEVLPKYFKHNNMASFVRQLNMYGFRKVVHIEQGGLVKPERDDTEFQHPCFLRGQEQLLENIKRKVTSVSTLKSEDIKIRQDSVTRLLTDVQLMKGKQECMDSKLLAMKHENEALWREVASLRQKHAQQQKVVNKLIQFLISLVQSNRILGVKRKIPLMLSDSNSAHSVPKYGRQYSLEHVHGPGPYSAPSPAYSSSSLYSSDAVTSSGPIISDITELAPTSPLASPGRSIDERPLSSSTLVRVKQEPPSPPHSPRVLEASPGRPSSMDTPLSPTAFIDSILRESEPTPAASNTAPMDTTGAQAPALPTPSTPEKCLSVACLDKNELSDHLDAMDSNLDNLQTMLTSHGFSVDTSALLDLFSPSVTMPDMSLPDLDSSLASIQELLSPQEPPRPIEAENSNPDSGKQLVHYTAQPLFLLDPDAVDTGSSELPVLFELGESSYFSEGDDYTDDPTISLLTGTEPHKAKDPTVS

[11] = biological target: Mothers against decapentaplegic homolog 3 (Homo sapiens, UniProt P84022); experiment: inhibitors of SMAD-driven TGF-beta signaling – dose response (AID 715); format: functional
INS1 = experiment: INS-1E survival protection against cytokine death – cell-based, luminescence, retest, dose response (AID 449756); format: functional; settings: Rattus norvegicus;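 also: cell death triggered by IL-1 beta plus TNF-alpha plus IFN-gamma mixture; protective hits raise ATP signal compared with cytokine alone wells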
BJ [12] = experiment: BJ-TERT-LT-ST fibroblast viability loss – cell-based, RAS-independent, luminescence, dose response (AID 1935); format: functional; settings: Homo sapiens;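 also: BJ fibroblasts immortalized with TERT plus LT and ST oncogenes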
Genome polyprotein = Genome polyprotein (dengue virus type 2, UniProt P29990); experiment: flavivirus cap methylation enzyme inhibition – biochemical, confirmation dose response, primary screen (AID 588689); format: functional
Vero = experiment: viability of Vero cells under compound – cytotoxicity control for flavivirus capping enzyme inhibitors (AID 588742); format: functional; settings: Chlorocebus sabaeus
[13] = non-specific 3'UTR reporter inhibition in Clone20-Shn3RL – cell-based, Renilla luciferase, cherry-picked, counter-screen for Shn3 inhibitor project, dose response (AID 624133); format: functional
[14] = reduction of Shn3 3'UTR-driven luciferase in osteoblasts – cell-based, Clone20 osteoblasts, firefly luciferase, cherry-picked, dose response (AID 624132); format: functional;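 also: firefly luciferase luminescence from reporter carrying the Shn3 3'UTR in osteoblasts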
[15] = biological target: Potassium voltage-gated channel subfamily KQT member 2 (Rattus norvegicus, UniProt O88943, W236L); experiment: potentiation of rat KCNQ2 current – cell-based, automated electrophysiology, mechanism study for KCNQ2 potentiator project, dose response (AID 2603); format: functional
[16] = biological target: T3, Replicative DNA helicase DnaB (Mycobacterium tuberculosis, UniProt P9WMR3); experiment: DnaB intein splicing inhibitors, dose response, biochemical, cell-free fluorescence (AID 449749); format: functional
T3 sequence (P9WMR3 whole entry): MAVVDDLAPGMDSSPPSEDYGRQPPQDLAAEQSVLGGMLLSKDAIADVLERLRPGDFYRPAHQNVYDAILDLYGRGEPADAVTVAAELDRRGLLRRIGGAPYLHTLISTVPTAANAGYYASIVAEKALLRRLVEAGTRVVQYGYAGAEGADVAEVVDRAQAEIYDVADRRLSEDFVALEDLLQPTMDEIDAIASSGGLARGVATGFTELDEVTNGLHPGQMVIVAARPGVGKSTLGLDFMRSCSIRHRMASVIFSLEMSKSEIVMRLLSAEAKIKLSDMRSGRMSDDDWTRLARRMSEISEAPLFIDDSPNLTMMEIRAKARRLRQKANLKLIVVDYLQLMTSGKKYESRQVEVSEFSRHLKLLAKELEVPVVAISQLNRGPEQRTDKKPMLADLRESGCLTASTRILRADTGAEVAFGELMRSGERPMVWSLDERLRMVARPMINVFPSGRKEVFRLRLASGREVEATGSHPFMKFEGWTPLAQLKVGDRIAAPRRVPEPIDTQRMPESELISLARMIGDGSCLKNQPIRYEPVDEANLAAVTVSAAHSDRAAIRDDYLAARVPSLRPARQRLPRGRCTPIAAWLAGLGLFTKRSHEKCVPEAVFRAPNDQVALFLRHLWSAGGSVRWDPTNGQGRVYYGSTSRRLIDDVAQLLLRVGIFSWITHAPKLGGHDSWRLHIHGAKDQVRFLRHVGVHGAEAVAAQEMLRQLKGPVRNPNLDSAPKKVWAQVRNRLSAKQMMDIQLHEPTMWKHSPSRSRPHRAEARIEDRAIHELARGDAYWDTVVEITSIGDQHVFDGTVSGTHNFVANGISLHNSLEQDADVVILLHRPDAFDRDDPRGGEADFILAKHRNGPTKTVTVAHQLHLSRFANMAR

[17] = biological target: T4, High affinity choline transporter 1 (Homo sapiens, UniProt Q9GZV3); experiment: human choline transporter blockers, potency – cell-based, 5-point CRC, membrane potential dye, dose response (AID 504840); format: functional
T4 sequence (Q9GZV3 whole entry): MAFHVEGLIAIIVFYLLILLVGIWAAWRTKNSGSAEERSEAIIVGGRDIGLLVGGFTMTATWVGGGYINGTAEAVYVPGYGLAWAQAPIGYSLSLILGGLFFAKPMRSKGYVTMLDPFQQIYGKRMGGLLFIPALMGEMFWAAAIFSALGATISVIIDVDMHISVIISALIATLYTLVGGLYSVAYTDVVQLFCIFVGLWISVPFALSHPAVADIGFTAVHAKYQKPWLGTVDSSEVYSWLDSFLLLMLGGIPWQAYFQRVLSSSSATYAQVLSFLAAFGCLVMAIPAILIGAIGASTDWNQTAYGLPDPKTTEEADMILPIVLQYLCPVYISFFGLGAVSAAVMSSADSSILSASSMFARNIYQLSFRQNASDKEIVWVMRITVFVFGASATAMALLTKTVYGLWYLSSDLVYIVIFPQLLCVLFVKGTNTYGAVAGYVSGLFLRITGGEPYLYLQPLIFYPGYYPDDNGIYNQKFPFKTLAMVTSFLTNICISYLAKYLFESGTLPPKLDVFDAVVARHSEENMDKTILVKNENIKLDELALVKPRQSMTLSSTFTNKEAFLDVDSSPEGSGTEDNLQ

[18] = biological target: ATP-binding cassette sub-family B member 6 (Homo sapiens, UniProt Q9NP58); experiment: ABCB6 transporter inhibitors, porphyrin accumulation, dose response, flow cytometry, K562-ABCB6 cells, cherry pick 02 (AID 624487); format: functional; settings: read-out: EC50_MICROM
Protein RecA = biological target: T5, Protein RecA (Mycobacterium tuberculosis, UniProt P9WHJ3); experiment: Fluorescence Cell-Free Homogeneous Dose Retest to Identify Inhibitors of RecA-Intein Splicing Activity. [Related pubchem assays (depositor defined):AID2097, AID2223, AID489010, AID492950]; format: functional
T5 sequence (P9WHJ3 whole entry): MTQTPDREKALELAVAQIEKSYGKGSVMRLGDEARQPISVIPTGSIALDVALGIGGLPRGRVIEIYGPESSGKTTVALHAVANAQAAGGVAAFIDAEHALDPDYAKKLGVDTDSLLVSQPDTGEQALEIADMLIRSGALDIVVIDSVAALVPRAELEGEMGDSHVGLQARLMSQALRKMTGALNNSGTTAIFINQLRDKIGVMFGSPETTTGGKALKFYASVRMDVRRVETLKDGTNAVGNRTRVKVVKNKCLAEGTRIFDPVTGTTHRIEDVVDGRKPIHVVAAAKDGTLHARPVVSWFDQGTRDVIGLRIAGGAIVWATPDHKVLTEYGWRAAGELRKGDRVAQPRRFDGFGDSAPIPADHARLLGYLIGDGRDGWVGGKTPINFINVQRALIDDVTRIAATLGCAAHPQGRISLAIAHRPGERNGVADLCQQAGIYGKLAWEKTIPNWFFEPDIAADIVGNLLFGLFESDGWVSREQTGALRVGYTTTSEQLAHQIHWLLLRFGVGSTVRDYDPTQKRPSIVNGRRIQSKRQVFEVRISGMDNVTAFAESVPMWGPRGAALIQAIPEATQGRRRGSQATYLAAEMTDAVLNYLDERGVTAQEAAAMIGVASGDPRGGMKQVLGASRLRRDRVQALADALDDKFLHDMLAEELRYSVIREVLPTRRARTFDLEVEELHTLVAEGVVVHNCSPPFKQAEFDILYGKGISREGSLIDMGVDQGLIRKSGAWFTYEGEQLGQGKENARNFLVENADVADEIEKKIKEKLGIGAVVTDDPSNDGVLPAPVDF

Sequence of Sphingosine 1-phosphate receptor 3 (Q99500 whole entry): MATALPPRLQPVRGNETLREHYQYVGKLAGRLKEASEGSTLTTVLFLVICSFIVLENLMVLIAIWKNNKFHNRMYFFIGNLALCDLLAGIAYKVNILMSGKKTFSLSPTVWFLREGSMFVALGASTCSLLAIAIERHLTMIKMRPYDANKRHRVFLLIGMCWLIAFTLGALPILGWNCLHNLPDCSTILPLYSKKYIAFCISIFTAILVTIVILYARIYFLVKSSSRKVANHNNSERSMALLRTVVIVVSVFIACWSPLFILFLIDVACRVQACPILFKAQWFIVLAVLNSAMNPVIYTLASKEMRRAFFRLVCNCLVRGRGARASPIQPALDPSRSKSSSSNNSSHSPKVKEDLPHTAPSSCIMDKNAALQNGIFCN
Sequence of 5-hydroxytryptamine receptor 1E (P28566 whole entry): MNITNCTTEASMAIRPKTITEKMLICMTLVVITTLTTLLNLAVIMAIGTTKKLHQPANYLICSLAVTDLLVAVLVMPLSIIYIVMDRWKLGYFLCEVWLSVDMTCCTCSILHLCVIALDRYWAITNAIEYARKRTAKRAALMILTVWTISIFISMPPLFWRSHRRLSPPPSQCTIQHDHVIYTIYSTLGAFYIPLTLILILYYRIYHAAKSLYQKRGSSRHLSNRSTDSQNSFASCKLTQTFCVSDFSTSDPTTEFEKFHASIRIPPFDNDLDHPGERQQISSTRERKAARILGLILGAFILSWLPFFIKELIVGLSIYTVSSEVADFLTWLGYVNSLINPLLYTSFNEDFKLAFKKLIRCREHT
Sequence of ATP-binding cassette sub-family B member 6 (Q9NP58 whole entry): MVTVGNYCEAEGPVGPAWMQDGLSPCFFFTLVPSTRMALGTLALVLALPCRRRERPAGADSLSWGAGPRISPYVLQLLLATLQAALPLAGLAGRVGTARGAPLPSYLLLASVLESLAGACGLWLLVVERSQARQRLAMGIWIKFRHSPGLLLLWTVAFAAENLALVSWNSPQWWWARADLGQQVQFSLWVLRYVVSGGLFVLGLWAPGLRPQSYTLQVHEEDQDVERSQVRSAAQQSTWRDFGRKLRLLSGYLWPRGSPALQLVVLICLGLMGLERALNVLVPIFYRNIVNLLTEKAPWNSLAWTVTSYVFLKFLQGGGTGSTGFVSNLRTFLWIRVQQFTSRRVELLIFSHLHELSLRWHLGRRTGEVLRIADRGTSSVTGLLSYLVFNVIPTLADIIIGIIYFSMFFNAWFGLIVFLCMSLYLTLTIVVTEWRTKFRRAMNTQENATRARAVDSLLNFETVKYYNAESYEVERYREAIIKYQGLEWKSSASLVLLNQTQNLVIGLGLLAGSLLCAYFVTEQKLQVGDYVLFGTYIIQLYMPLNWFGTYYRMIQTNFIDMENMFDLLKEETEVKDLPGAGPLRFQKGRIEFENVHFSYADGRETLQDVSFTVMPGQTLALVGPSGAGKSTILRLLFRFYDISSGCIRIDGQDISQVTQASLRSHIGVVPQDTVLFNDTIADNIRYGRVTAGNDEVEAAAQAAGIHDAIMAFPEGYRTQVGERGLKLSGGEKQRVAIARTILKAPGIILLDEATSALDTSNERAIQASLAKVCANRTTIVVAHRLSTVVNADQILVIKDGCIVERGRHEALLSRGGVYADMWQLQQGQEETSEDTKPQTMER
Sequence of Genome polyprotein (P29990 2492-3391 limits assumed): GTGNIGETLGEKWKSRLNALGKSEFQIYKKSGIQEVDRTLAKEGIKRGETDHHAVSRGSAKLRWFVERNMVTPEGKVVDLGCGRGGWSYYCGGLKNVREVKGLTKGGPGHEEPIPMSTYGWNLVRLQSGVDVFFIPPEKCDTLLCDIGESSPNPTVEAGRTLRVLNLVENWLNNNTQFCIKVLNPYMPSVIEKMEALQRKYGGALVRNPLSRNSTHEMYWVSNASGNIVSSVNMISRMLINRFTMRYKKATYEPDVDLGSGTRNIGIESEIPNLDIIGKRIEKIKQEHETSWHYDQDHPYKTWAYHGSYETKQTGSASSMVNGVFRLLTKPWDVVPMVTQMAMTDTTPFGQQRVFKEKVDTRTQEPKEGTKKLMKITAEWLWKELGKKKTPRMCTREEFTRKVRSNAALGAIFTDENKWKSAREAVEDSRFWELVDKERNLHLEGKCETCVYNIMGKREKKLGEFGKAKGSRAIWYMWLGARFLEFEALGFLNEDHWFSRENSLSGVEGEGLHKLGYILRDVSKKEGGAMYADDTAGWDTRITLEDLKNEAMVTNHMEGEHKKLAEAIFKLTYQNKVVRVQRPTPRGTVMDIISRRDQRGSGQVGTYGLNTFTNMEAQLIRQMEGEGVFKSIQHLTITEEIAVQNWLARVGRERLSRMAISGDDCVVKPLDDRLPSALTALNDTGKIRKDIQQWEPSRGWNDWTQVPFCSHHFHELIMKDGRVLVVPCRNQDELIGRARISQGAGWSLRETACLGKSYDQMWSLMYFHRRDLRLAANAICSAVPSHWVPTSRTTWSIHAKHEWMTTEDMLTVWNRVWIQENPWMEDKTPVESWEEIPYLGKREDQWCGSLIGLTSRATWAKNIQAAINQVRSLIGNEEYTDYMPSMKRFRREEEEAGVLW
Sequence of Potassium voltage-gated channel subfamily KQT member 2 (O88943 whole entry W236L): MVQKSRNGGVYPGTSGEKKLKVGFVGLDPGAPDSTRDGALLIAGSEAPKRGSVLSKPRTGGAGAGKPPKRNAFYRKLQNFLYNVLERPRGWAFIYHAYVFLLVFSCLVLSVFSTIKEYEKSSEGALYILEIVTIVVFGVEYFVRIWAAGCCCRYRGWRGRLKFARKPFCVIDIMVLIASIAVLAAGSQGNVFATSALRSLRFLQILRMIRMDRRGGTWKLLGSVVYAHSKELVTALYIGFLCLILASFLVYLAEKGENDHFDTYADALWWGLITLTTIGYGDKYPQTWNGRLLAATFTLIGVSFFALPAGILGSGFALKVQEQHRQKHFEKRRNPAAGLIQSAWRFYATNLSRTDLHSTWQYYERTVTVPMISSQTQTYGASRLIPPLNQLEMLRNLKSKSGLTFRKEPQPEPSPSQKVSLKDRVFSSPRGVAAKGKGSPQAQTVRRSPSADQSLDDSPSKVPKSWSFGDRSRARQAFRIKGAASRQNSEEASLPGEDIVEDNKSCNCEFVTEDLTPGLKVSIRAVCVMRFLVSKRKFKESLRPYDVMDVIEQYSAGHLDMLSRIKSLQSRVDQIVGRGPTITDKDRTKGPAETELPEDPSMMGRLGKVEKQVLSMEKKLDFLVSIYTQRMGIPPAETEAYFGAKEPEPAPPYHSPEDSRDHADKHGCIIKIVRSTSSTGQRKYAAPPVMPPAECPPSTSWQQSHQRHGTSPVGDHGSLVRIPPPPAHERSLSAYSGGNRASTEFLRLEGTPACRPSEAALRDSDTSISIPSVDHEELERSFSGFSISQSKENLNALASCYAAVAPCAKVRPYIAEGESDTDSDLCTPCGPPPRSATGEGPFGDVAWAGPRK
Sequence of Mothers against decapentaplegic homolog 3 (P84022 whole entry): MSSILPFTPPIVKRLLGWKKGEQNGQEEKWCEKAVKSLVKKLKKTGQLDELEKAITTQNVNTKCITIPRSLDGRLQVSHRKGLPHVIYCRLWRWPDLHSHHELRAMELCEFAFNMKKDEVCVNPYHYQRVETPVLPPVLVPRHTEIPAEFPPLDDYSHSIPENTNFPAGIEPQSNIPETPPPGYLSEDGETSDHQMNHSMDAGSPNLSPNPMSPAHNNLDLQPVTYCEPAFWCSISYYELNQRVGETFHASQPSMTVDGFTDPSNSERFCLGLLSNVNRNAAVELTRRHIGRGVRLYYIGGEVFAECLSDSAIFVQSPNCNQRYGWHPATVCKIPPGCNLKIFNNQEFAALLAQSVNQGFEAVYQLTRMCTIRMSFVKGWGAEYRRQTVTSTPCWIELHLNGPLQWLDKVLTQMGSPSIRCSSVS

## Cc1cc(C(=O)OC(C(=O)Nc2ccc(C)c(Cl)c2)c2ccccc2)c(C)o1 (configuration not stated)
[1]
  IC50: 11800 nM (not active)
[2]
  IC50: 13400 nM (not active)

## O=C1C(=O)c2ccc(-c3ccccc3)cc2-c2ccccc21
BJ [3]
  EC50: 1020 nM (active)
[4]
  EC50: 2210 nM (active)
[5]
  EC50: 1160 nM (active)
BJ [6]
  EC50: 1600 nM (active)
[7]
  IC50: 316 nM (active)
BJ [8]
  EC50: 2750 nM (inconclusive)
[9]
  EC50: 1210 nM (active)
[10]
  EC50: 1750 nM (active)
[11]
  IC50: 2000 nM (active)
INS1
  AC50: 1040 nM (active)
BJ [12]
  EC50: 1230 nM (inconclusive)

## CC(C)c1nnc(NC(=O)c2nc(S(=O)(=O)Cc3ccccc3)ncc2Cl)s1
Genome polyprotein
  IC50: > 100000 nM (active)
Vero
  CC50: 25900 nM (active)
[13]
  AC50: 6320 nM (active)
[14]
  AC50: 876 nM (active)
[15]
  EC50: 6200 nM (active)
[16]
  AC50: 48000 nM (active)
[17]
  IC50: 4470 nM (active)
[18]
  EC50: 36800 nM (active)
Protein RecA
  EC50: 8120 nM (active)
